According to US9597364B2, “Treatment of withdrawal symptoms to aid in nicotine use cessation with Passiflora incarnata” (Campbell University, priority 2011, dated 2017):

Assays:
Male Wistar rats [1] = conditions: 0.4 mg/kg nicotine s.c.
Method: Male Wistar rats (Charles River, Raleigh, N.C.) were provided with food and water ad libitum on a 12 hour light/dark cycle for 2-3 weeks before beginning any treatments. For all experiments, rats were approximately 45-65 days old and weighed between 148 and 195 g at the beginning of an experiment. Injections of nicotine or its vehicle (water) were subcutaneous (s.c.) administered at 0.4 mg/kg nicotine (Sigma Aldrich, St. Louis, Mo.) and 2 ml/kg. Injections of aqueous passion flower extract (Nature's Answer, Hauppage, N.Y.) or vehicle (1:1 glycerin:water) were intraperitoneal (i.p.) administered at 800 mg/kg and 0.16 ml/kg.
Drug-naive rats were placed individually in an open field for determination of spontaneous activity using the Limelight video tracking system (ActiMetrics, Wilmette, Ill.). Each rat was monitored in the open field for 30 minutes to determine the time course of habituation. Immediately afterward, each rat was injected with vehicle that was subsequently used for nicotine injection at 2 ml/kg and the rats were monitored for 50 minutes. Then each rat was removed from the chamber briefly to be injected s.c. with 0.4 mg/kg nicotine and monitored for another 90 minutes.
Mean velocity (in cm/s) over each 1 sec period was extracted using the LimeLight software and that data was used to calculate the average and SEM of the mean velocities for each 5 minute interval for each treatment group. Figures show the time at the end of the 5 minute period (e.g., 10 minutes is the 5-10 minute interval). In the preliminary assay of nicotine versus vehicle, there were 6 rats and in the chronic nicotine study there were 8-10 rats in each group.

Male Wistar rats [2] = test: Effect of passion flower extract on nicotine sensitization (expression of motor sensitization, open field); assay type: in vivo, rat; conditions: 0.4 mg/kg s.c. nicotine days 1-4, challenge day 5
Method: To produce nicotine sensitization, rats were injected once/day for 4 consecutive days with either nicotine or vehicle. On day 5, known as the test day, rats were divided into four groups; half of those that had received vehicle on days 1-4 were pre-treated with passion flower extract (vehicle-passion flower group) and the other half with vehicle (vehicle-vehicle group). Analogously, half of the rats that received nicotine on days 1-4 received a pre-treatment of i.p. 1:1 water:glycerin (nicotine-vehicle group) on day 5, while the other half was given a pre-treatment of i.p. passion flower extract (nicotine-passionflower group). Each rat was monitored in the open field for 100 consecutive minutes, starting approximately 23 hours after the day 4 nicotine treatment. Before any injections on day 5, rats were placed in the activity chambers until an injection of passion flower extract or vehicle at 25 minutes, then monitored for another 25 minutes, at which point all rats received an injection of nicotine and were monitored for 50 additional minutes.

## CN1CCCC1c1cccnc1 (stereo not shown) [nicotine]
Male Wistar rats [1]
  time of peak activity after injection: 5 to 15 min
Male Wistar rats [1]; intervals between 10 and 35 minutes except 15-20 minutes, 2-way ANOVA, Bonferroni p<0.05
  activity compared with vehicle treatment: significantly different from vehicle treatment
Male Wistar rats [1]; vehicle average 0.8±0.1 cm/s
  spontaneous activity (velocity) during the 10-35 minute intervals, average: 1.9±0.2 cm/s
Male Wistar rats [2]
  activity of nicotine-sensitized group (nicotine-vehicle) after challenge dose of nicotine, compared with vehicle-vehicle group: significantly greater activity than the vehicle-vehicle group
